Here are results for 17 compounds from patent US20240294517A1, “2-[3-[1 [(QUINAZOLIN-4-YL)AMINO]ETHYL]PYRAZIN-2-YL]THIAZOLE-5-CARBONITRILE DERIVATIVES AND SIMILAR COMPOUNDS AS PESTICIDES” (SYNGENTA CROP PROTECTION AG, priority 2021, published 2024).

Common to all, as to type: in vivo
One experiment deals with Diabrotica balteata. As to the kind of experiment: Activity against Diabrotica balteata (corn root worm), sprayed maize sprouts. As to conditions: for percent effect (mortality or growth inhibition) at 200 ppm: 96 h, application rate 200 ppm, L2 larvae, 4 days after infestation, read-out: effect in at least one of the two categories (mortality or growth inhibition); for mortality at 3.125 ppm: concentration 3.125 ppm. How it is done: Maize sprouts placed onto an agar layer in 24-well microtiter plates were treated with aqueous test solutions prepared from 10′000 ppm DMSO stock solutions by spraying. After drying, the plates were infested with L2 larvae (6 to 10 per well). The samples were assessed for mortality and growth inhibition in comparison to untreated samples 4 days after infestation.
(§1) Activity of compound P5 according to the preparatory examples and of compound P.118 from WO 21/083936 against Plutella xylostella ([…]) and Diabrotica balteata (Example B2) is summarized in Table B9.

In a further experiment the test system is Plutella xylostella. As to the kind of experiment: Activity against Plutella xylostella (diamond back moth), artificial diet. Conditions: for percent effect (mortality or growth inhibition) at 200 ppm: 192 h, application rate 200 ppm, eggs, 8 days after infestation, read-out: effect in at least one of the two categories (mortality or growth inhibition); for mortality at 12.5 ppm: concentration 12.5 ppm. The protocol:
24-well microtiter plates with artificial diet were treated with aqueous test solutions prepared from 10′000 ppm DMSO stock solutions by pipetting. After drying, Plutella eggs were pipetted through a plastic stencil onto a gel blotting paper and the plate was closed with it. The samples were assessed for mortality and growth inhibition in comparison to untreated samples 8 days after infestation.
as §1

A further experiment relates to Spodoptera littoralis. As to the kind of experiment: Activity against Spodoptera littoralis (Egyptian cotton leaf worm), sprayed cotton leaf discs. Conditions: foliar, 72 h, application rate 200 ppm, L1 larvae, 3 days after infestation. How it is done:
Cotton leaf discs were placed onto agar in 24-well microtiter plates and sprayed with aqueous test solutions prepared from 10′000 ppm DMSO stock solutions. After drying the leaf discs were infested with five L1 larvae. The samples were assessed for mortality, anti-feeding effect, and growth inhibition in comparison to untreated samples 3 days after infestation. Control of Spodoptera littoralis by a test sample is given when at least one of the categories mortality, anti-feedant effect, and growth inhibition is higher than the untreated sample.

The next experiment relates to Chilo suppressalis. As to the kind of experiment: Activity against Chilo suppressalis (striped rice stemborer), artificial diet in 24-well plates. As to conditions: 144 h, application rate 200 ppm, L2 larvae, 6 days after infestation. How it is done:
24-well microtiter plates with artificial diet were treated with aqueous test solutions prepared from 10′000 ppm DMSO stock solutions by pipetting. After drying, the plates were infested with L2 larvae (6-8 per well). The samples were assessed for mortality, anti-feeding effect, and growth inhibition in comparison to untreated samples 6 days after infestation. Control of Chilo suppressalis by a test sample is given when at least one of the categories mortality, anti-feedant effect, and growth inhibition is higher than the untreated sample.

For another experiment, the system named is Euschistus heros. As to the kind of experiment: Activity against Euschistus heros (neotropical brown stink bug), sprayed soybean leaves. As to conditions: 120 h, application rate 200 ppm, N2 nymphs, 5 days after infestation, read-out: effect in at least one of the two categories (mortality or growth inhibition). How it is done: Soybean leaves on agar in 24-well microtiter plates were sprayed with aqueous test solutions prepared from 10′000 ppm DMSO stock solutions. After drying the leaves were infested with N2 nymphs. The samples were assessed for mortality and growth inhibition in comparison to untreated samples 5 days after infestation.

A value given as a limit tells only on which side of the number the result lay.

Consider `CC(Nc1ncnc2c(C(F)(F)F)cc(Cl)cc12)c1nccnc1-c1ncsn1` (stereo not shown) [P13, 6-chloro-N-[1-[3-(1,2,4-thiadiazol-3-yl)pyrazin-2-yl]ethyl]-8-(trifluoromethyl)quinazolin-4-amine], for which the percent effect (mortality or growth inhibition) at 200 ppm in the experiment with Diabrotica balteata and in the experiment on Plutella xylostella was at least 80% in each case. This compound yielded a percent control (mortality, anti-feedant effect or growth inhibition) at 200 ppm in the experiment on Spodoptera littoralis of at least 80%.
As to `C[C@H](Nc1ncnc2c(Cl)cc(S(=O)(=O)C(F)(F)F)cc12)c1ncnn1-c1ncc(C#N)s1` [P22, 2-[5-[(1S)-1-[[8-chloro-6-(trifluoromethylsulfonyl)quinazolin-4-yl]amino]ethyl]-1,2,4-triazol-1-yl]thiazole-5-carbonitrile], the percent control (mortality, anti-feedant effect or growth inhibition) at 200 ppm in the experiment on Chilo suppressalis and with Spodoptera littoralis was at least 80% in each case. The percent effect (mortality or growth inhibition) at 200 ppm in the experiment on Diabrotica balteata and in the experiment on Plutella xylostella was at least 80% throughout.
For the compound `CC(Nc1ncnc2c(C(F)(F)F)cc(C(F)(F)F)cc12)c1nccnc1-c1ncc(C#N)s1` (stereo not shown) [P7, 2-[3-[1-[[6,8-bis(trifluoromethyl)quinazolin-4-yl]amino]ethyl]pyrazin-2-yl]thiazole-5-carbonitrile], the percent control (mortality, anti-feedant effect or growth inhibition) at 200 ppm in the experiment with Chilo suppressalis and in the experiment on Spodoptera littoralis was at least 80% throughout. In addition, the percent effect (mortality or growth inhibition) at 200 ppm with Diabrotica balteata and in the experiment with Plutella xylostella was at least 80% each time.
As for `CC(Nc1ncnc2c(C(F)(F)F)cc(C(F)(F)F)cc12)c1nccnc1-c1ncc(Br)s1` (stereo not shown) [P8, N-[1-[3-(5-bromothiazol-2-yl)pyrazin-2-yl]ethyl]-6,8-bis(trifluoromethyl)quinazolin-4-amine], in the experiment with Chilo suppressalis, the percent control (mortality, anti-feedant effect or growth inhibition) at 200 ppm was at least 80%. For the same compound, the percent effect (mortality or growth inhibition) at 200 ppm with Diabrotica balteata and with Plutella xylostella was at least 80% each time.
In the case of `CC(Nc1ncnc2c(C(F)(F)F)cc(Cl)cc12)c1nccnc1-c1ccc(C#N)cn1` (stereo not shown) [P.118, reference compound], in the experiment on Diabrotica balteata, the mortality at 3.125 ppm is 0%. The mortality at 12.5 ppm with Plutella xylostella was found to be 0%.
In the experiment on Chilo suppressalis, `CC(Nc1nc(=O)[nH]c2c(Br)cc(C(F)(F)F)cc12)c1nccnc1-c1ncc(Br)s1` (stereo not shown) [P4, 8-bromo-4-[1-[3-(5-bromothiazol-2-yl)pyrazin-2-yl]ethylamino]-6-(trifluoromethyl)-1H-quinazolin-2-one] displayed a percent control (mortality, anti-feedant effect or growth inhibition) at 200 ppm of at least 80%. Also, the percent effect (mortality or growth inhibition) at 200 ppm with Diabrotica balteata and in the experiment with Plutella xylostella was at least 80% in each case.
Consider `C[C@H](Nc1ncnc2c(C(F)(F)F)cc(Cl)cc12)c1ncnn1-c1ncc(C#N)s1` [P10, 2-[5-[(1S)-1-[[6-chloro-8-(trifluoromethyl)quinazolin-4-yl]amino]ethyl]-1,2,4-triazol-1-yl]thiazole-5-carbonitrile], for which the percent control (mortality, anti-feedant effect or growth inhibition) at 200 ppm with Chilo suppressalis and with Spodoptera littoralis was at least 80% each time. The percent effect (mortality or growth inhibition) at 200 ppm in the experiment with Diabrotica balteata, in the experiment with Euschistus heros and in the experiment with Plutella xylostella was at least 80% in each case.
Turning to `C[C@H](Nc1nc(=O)[nH]c2c(Br)cc(C(F)(F)F)cc12)c1ncnn1-c1ncc(C#N)s1` [P2, 2-[5-[(1S)-1-[[8-bromo-2-oxo-6-(trifluoromethyl)-1H-quinazolin-4-yl]amino]ethyl]-1,2,4-triazol-1-yl]thiazole-5-carbonitrile], the percent control (mortality, anti-feedant effect or growth inhibition) at 200 ppm in the experiment on Chilo suppressalis and with Spodoptera littoralis was at least 80% throughout. The percent effect (mortality or growth inhibition) at 200 ppm in the experiment on Plutella xylostella was at least 80%.
As to `CC(Nc1ncnc2c(C(F)(F)F)cc(Cl)cc12)c1nccnc1-c1ncc(Br)s1` (stereo not shown) [P6, N-[1-[3-(5-bromothiazol-2-yl)pyrazin-2-yl]ethyl]-6-chloro-8-(trifluoromethyl)quinazolin-4-amine], the percent control (mortality, anti-feedant effect or growth inhibition) at 200 ppm in the experiment with Chilo suppressalis is at least 80%. In the experiment on Diabrotica balteata, the percent effect (mortality or growth inhibition) at 200 ppm is at least 80%.
Take `CC(Nc1ncnc2c(Cl)cc(C(F)(F)F)cc12)c1nccnc1-c1ncc(C#N)s1` (stereo not shown) [P12, 2-[3-[1-[[8-chloro-6-(trifluoromethyl)quinazolin-4-yl]amino]ethyl]pyrazin-2-yl]thiazole-5-carbonitrile]: the percent control (mortality, anti-feedant effect or growth inhibition) at 200 ppm in the experiment with Chilo suppressalis and in the experiment with Spodoptera littoralis was at least 80% in each case. Moreover, the percent effect (mortality or growth inhibition) at 200 ppm with Diabrotica balteata and in the experiment on Plutella xylostella was at least 80% each time.
`C[C@H](Nc1nc(Cl)nc2c(Br)cc(C(F)(F)F)cc12)c1ncnn1-c1ncc(C#N)s1` [P9, 2-[5-[(1S)-1-[[8-bromo-2-chloro-6-(trifluoromethyl)quinazolin-4-yl]amino]ethyl]-1,2,4-triazol-1-yl]thiazole-5-carbonitrile] showed a percent control (mortality, anti-feedant effect or growth inhibition) at 200 ppm in the experiment with Chilo suppressalis of at least 80%. Also, the percent effect (mortality or growth inhibition) at 200 ppm with Diabrotica balteata and in the experiment on Plutella xylostella was at least 80% each time.
As for `C[C@@H](c1ncnn1-c1ncc(C#N)s1)N(C)c1ncnc2c(C(F)(F)F)cc(Cl)cc12` [P11, 2-[5-[(1S)-1-[[6-chloro-8-(trifluoromethyl)quinazolin-4-yl]-methyl-amino]ethyl]-1,2,4-triazol-1-yl]thiazole-5-carbonitrile], the percent control (mortality, anti-feedant effect or growth inhibition) at 200 ppm in the experiment on Chilo suppressalis and with Spodoptera littoralis was at least 80% throughout. The percent effect (mortality or growth inhibition) at 200 ppm in the experiment on Diabrotica balteata and in the experiment on Plutella xylostella was at least 80% in each case.
With `CC(Nc1nc(=O)[nH]c2c(Br)cc(C(F)(F)F)cc12)c1nccnc1-c1ncc(C#N)s1` (stereo not shown) [P1, 2-[3-[1-[[8-bromo-2-oxo-6-(trifluoromethyl)-1H-quinazolin-4-yl]amino]ethyl]pyrazin-2-yl]thiazole-5-carbonitrile], the percent control (mortality, anti-feedant effect or growth inhibition) at 200 ppm in the experiment on Chilo suppressalis was at least 80%. Further, the percent effect (mortality or growth inhibition) at 200 ppm in the experiment on Diabrotica balteata and with Plutella xylostella was at least 80% each time.
Turning to `CC(Nc1ncnc2c(C(F)(F)F)cc(Cl)cc12)c1nccnc1-c1ncc(C#N)s1` (stereo not shown) [P5, 2-[3-[1-[[6-chloro-8-(trifluoromethyl)quinazolin-4-yl]amino]ethyl]pyrazin-2-yl]thiazole-5-carbonitrile], the percent control (mortality, anti-feedant effect or growth inhibition) at 200 ppm in the experiment with Chilo suppressalis and in the experiment on Spodoptera littoralis was at least 80% each time. The percent effect (mortality or growth inhibition) at 200 ppm in the experiment on Diabrotica balteata and in the experiment on Plutella xylostella was at least 80% each time. In the experiment on Diabrotica balteata, this compound came in with a mortality at 3.125 ppm of 100%. Moreover, in the experiment with Plutella xylostella, the mortality at 12.5 ppm was determined as 50%.
As to `CC(Nc1ncnc2c(Cl)cc(C(F)(F)F)cc12)c1nccnc1-c1ncsn1` (stereo not shown) [P18, 8-chloro-N-[1-[3-(1,2,4-thiadiazol-3-yl)pyrazin-2-yl]ethyl]-6-(trifluoromethyl)quinazolin-4-amine], the percent effect (mortality or growth inhibition) at 200 ppm in the experiment on Diabrotica balteata and in the experiment on Plutella xylostella was at least 80% in each case.
For the compound `CC(Nc1ncnc2c(Br)cc(Br)cc12)c1nccnc1-c1ncc(C#N)s1` (stereo not shown) [P19, 2-[3-[1-[(6,8-dibromoquinazolin-4-yl)amino]ethyl]pyrazin-2-yl]thiazole-5-carbonitrile], the percent control (mortality, anti-feedant effect or growth inhibition) at 200 ppm with Chilo suppressalis and in the experiment with Spodoptera littoralis was at least 80% throughout. Besides, the percent effect (mortality or growth inhibition) at 200 ppm in the experiment with Diabrotica balteata and with Plutella xylostella was at least 80% each time.
On to `CC(Nc1ncnc2c(Br)cc(Br)cc12)c1nccnc1-c1ncsn1` (stereo not shown) [P16, 6,8-dibromo-N-[1-[3-(1,2,4-thiadiazol-3-yl)pyrazin-2-yl]ethyl]quinazolin-4-amine], for which the percent effect (mortality or growth inhibition) at 200 ppm in the experiment with Diabrotica balteata and with Plutella xylostella was at least 80% in each case. The percent control (mortality, anti-feedant effect or growth inhibition) at 200 ppm in the experiment on Spodoptera littoralis was at least 80%.
